We go through 1 compound from US20230085307A1, “PYRIDAZINONE COMPOUND AND HERBICIDE” (NISSAN CHEMICAL CORPORATION, priority 2019, published 2023).

The first experiment relates to barnyard grass. Nature of the experiment: Test Example 3: herbicidal effect by foliage application, Wagner pot (Table 18, symbol H). Type of experiment: in vivo, barnyard grass (Echinochloa crus-galli). To be noted: 320 g/ha. The gist of the method:
(§1)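 Plants were sown in alluvial soil held under 0.1–0.5 cm standing water and grown 14 days in a greenhouse at 25–30 °C. An emulsifiable formulation, water-diluted to the set dose, was then sprayed onto the foliage, and effects were scored three weeks later using previously defined criteria.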
As to `CCCCCOc1ccc(-c2sc3ccccc3c2-c2c(O)c(C)nn(C)c2=O)cc1` [1-026], the “herbicidal effect on H (barnyard grass), rating 0-5” value was 4 (Herbicidal rate of 70% or more and less than 90%).

Another experiment deals with oval-leafed pondweed. As to the kind of experiment: Test Example 1: herbicidal activity, application before weed generation under submerged conditions (Table 16, symbol C). It counts as in vivo, oval-leafed pondweed (Monochoria vaginalis). To be noted: 320 g/ha applied herbicide. The gist of the method:
(§2)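 Submerged Wagner pots (alluvial soil, 4 cm water) sown with weed seeds and planted with 2.5-leaf rice seedlings; emulsifiable concentrate diluted in water applied to water surface on sowing day. Held in greenhouse at 25-30 °C; injury scored 0-5 by herbicidal rate after three weeks.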
On to `CCCCCOc1ccc(-c2sc3ccccc3c2-c2c(O)c(C)nn(C)c2=O)cc1` [1-026], for which the “Herbicidal effect on C: oval-leafed pondweed (grade 0-5)” value is 1 (Herbicidal rate of 5% or more and less than 20%).

The next experiment deals with windgrass. As to the kind of experiment: Test Example 5: herbicidal effect by foliage application, plastic box (Table 20, symbol L). To be noted: foliage application, 320 g/ha, three weeks after application. Type of experiment: in vivo, windgrass (Apera spica-venti). The gist of the method:
(§3)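 Foliar spray test: emulsion formulation diluted in water to a set application rate, sprayed onto 14-day-old plants raised in diluvial soil at 25° C to 30° C under glass. Both herbicidal effect and crop effect rated visually three weeks later.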
Consider `CCCCCOc1ccc(-c2sc3ccccc3c2-c2c(O)c(C)nn(C)c2=O)cc1` [1-026], for which the “herbicidal effect grade, L: windgrass” value was 4 (Herbicidal rate of 70% or more and less than 90%).

For the next experiment, the system named is Japanese bulrush. Nature of the experiment: Test Example 1: herbicidal activity, application before weed generation under submerged conditions (Table 16, symbol B). It counts as in vivo, Japanese bulrush (Schoenoplectus juncoides). The note with it: 320 g/ha applied herbicide. The gist of the method: as §2
Take `CCCCCOc1ccc(-c2sc3ccccc3c2-c2c(O)c(C)nn(C)c2=O)cc1` [1-026]: the “Herbicidal effect on B: Japanese bulrush (grade 0-5)” value is 2 (Herbicidal rate of 20% or more and less than 40%).

The test system of the next experiment is wild oat. As to the kind of experiment: Test Example 5: herbicidal effect by foliage application, plastic box (Table 20, symbol I). It counts as in vivo, wild oat (Avena fatua). To be noted: foliage application, 320 g/ha, three weeks after application. The gist of the method: as §3
With `CCCCCOc1ccc(-c2sc3ccccc3c2-c2c(O)c(C)nn(C)c2=O)cc1` [1-026], the “herbicidal effect grade, I: wild oat” value was 2 (Herbicidal rate of 20% or more and less than 40%).

A further experiment concerns rice flat sedge. Nature of the experiment: Test Example 3: herbicidal effect by foliage application, Wagner pot (Table 18, symbol E). Type of experiment: in vivo, rice flat sedge (Cyperus iria). To be noted: 320 g/ha. The gist of the method: as §1
As for `CCCCCOc1ccc(-c2sc3ccccc3c2-c2c(O)c(C)nn(C)c2=O)cc1` [1-026], the “herbicidal effect on E (rice flat sedge), rating 0-5” value was 4 (Herbicidal rate of 70% or more and less than 90%).

For the next experiment, the system named is Chinese sprangletop. As to the kind of experiment: Test Example 3: herbicidal effect by foliage application, Wagner pot (Table 18, symbol D). Type of experiment: in vivo, chinese sprangletop (Leptochloa chinensis). To be noted: 320 g/ha. The method, boiled down:
as §1
Take `CCCCCOc1ccc(-c2sc3ccccc3c2-c2c(O)c(C)nn(C)c2=O)cc1` [1-026]: the “herbicidal effect on D (Chinese sprangletop), rating 0-5” value is 1 (Herbicidal rate of 5% or more and less than 20%).

For the next experiment, the system named is persian speedwell. As to the kind of experiment: Test Example 4: herbicidal effect by soil treatment (Table 19, symbol R). It counts as in vivo, Persian speedwell (Veronica persica). To be noted: amount of applied herbicide 320 g/ha. The method, boiled down: (§4)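 Step 1: sow seeds in sterilized diluvial soil, cover ~1.5 cm. Step 2: spray diluted emulsion onto soil surface at predetermined rate. Step 3: greenhouse, 25–30° C, three weeks. Step 4: grade effect on each plant by earlier criteria.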
Consider `CCCCCOc1ccc(-c2sc3ccccc3c2-c2c(O)c(C)nn(C)c2=O)cc1` [1-026], for which the “herbicidal effect rating, R: persian speedwell” value is 3 (Herbicidal rate of 40% or more and less than 70%).

A further experiment relates to southern crabgrass. Nature of the experiment: Test Example 5: herbicidal effect by foliage application, plastic box (Table 20, symbol F). The note with it: foliage application, 320 g/ha, three weeks after application. Type of experiment: in vivo, southern crabgrass (Digitaria ciliaris). The method, boiled down: as §3
Turning to `CCCCCOc1ccc(-c2sc3ccccc3c2-c2c(O)c(C)nn(C)c2=O)cc1` [1-026], the “herbicidal effect grade, F: southern crabgrass” value is 4 (Herbicidal rate of 70% or more and less than 90%).

The next experiment concerns chickweed. Nature of the experiment: Test Example 4: herbicidal effect by soil treatment (Table 19, symbol P). Type of experiment: in vivo, common chickweed (Stellaria media). To be noted: amount of applied herbicide 320 g/ha. The method, boiled down:
as §4
As to `CCCCCOc1ccc(-c2sc3ccccc3c2-c2c(O)c(C)nn(C)c2=O)cc1` [1-026], the “herbicidal effect rating, P: chickweed” value was 2 (Herbicidal rate of 20% or more and less than 40%).

The next experiment deals with Italian ryegrass. Nature of the experiment: Test Example 4: herbicidal effect by soil treatment (Table 19, symbol K). It counts as in vivo, Italian ryegrass (Lolium multiflorum). The note with it: amount of applied herbicide 320 g/ha. The method, boiled down: as §4
As for `CCCCCOc1ccc(-c2sc3ccccc3c2-c2c(O)c(C)nn(C)c2=O)cc1` [1-026], the “herbicidal effect rating, K: Italian ryegrass” value was 0 (Herbicidal rate of 5% or less (almost no effect)).

For another experiment, the system named is redroot pigweed. Nature of the experiment: Test Example 5: herbicidal effect by foliage application, plastic box (Table 20, symbol N). The note with it: foliage application, 320 g/ha, three weeks after application. Type of experiment: in vivo, redroot pigweed (Amaranthus retroflexus). The gist of the method:
as §3
Regarding `CCCCCOc1ccc(-c2sc3ccccc3c2-c2c(O)c(C)nn(C)c2=O)cc1` [1-026], the “herbicidal effect grade, N: redroot pigweed” value was 5 (Herbicidal rate of 90% or more (almost completely withered)).

In the next experiment the test system is velvetleaf. As to the kind of experiment: Test Example 5: herbicidal effect by foliage application, plastic box (Table 20, symbol M). The note with it: foliage application, 320 g/ha, three weeks after application. It counts as in vivo, velvetleaf (Abutilon theophrasti). The gist of the method: as §3
In the case of `CCCCCOc1ccc(-c2sc3ccccc3c2-c2c(O)c(C)nn(C)c2=O)cc1` [1-026], the “herbicidal effect grade, M: velvetleaf” value is reported as 5 (Herbicidal rate of 90% or more (almost completely withered)).

The next experiment concerns late watergrass. Nature of the experiment: Test Example 1: herbicidal activity, application before weed generation under submerged conditions (Table 16, symbol A). It counts as in vivo, late watergrass (Echinochloa oryzicola). The note with it: 320 g/ha applied herbicide. The gist of the method:
as §2
`CCCCCOc1ccc(-c2sc3ccccc3c2-c2c(O)c(C)nn(C)c2=O)cc1` [1-026]: the “Herbicidal effect on A: late watergrass (grade 0-5)” value is 1 (Herbicidal rate of 5% or more and less than 20%).

The next experiment concerns barnyard grass. Nature of the experiment: Test Example 5: herbicidal effect by foliage application, plastic box (Table 20, symbol H). The note with it: foliage application, 320 g/ha, three weeks after application. It counts as in vivo, barnyard grass (Echinochloa crus-galli). The method, boiled down: as §3
With `CCCCCOc1ccc(-c2sc3ccccc3c2-c2c(O)c(C)nn(C)c2=O)cc1` [1-026], the “herbicidal effect grade, H: barnyard grass” value is 3 (Herbicidal rate of 40% or more and less than 70%).

In another experiment the test system is lambsquarters. Nature of the experiment: Test Example 4: herbicidal effect by soil treatment (Table 19, symbol O). Type of experiment: in vivo, lambsquarters (Chenopodium album). To be noted: amount of applied herbicide 320 g/ha. The method, boiled down: as §4
Regarding `CCCCCOc1ccc(-c2sc3ccccc3c2-c2c(O)c(C)nn(C)c2=O)cc1` [1-026], the “herbicidal effect rating, O: lambsquarters” value is 0 (Herbicidal rate of 5% or less (almost no effect)).

In another experiment the test system is chickweed. Nature of the experiment: Test Example 5: herbicidal effect by foliage application, plastic box (Table 20, symbol P). It counts as in vivo, common chickweed (Stellaria media). The note with it: foliage application, 320 g/ha, three weeks after application. The method, boiled down:
as §3
Consider `CCCCCOc1ccc(-c2sc3ccccc3c2-c2c(O)c(C)nn(C)c2=O)cc1` [1-026], for which the “herbicidal effect grade, P: chickweed” value is 5 (Herbicidal rate of 90% or more (almost completely withered)).

For the next experiment, the system named is blackgrass. As to the kind of experiment: Test Example 5: herbicidal effect by foliage application, plastic box (Table 20, symbol J). It counts as in vivo, blackgrass (Alopecurus myosuroides). The note with it: foliage application, 320 g/ha, three weeks after application. The method, boiled down:
as §3
On to `CCCCCOc1ccc(-c2sc3ccccc3c2-c2c(O)c(C)nn(C)c2=O)cc1` [1-026], for which the “herbicidal effect grade, J: blackgrass” value is 4 (Herbicidal rate of 70% or more and less than 90%).

A further experiment concerns windgrass. Nature of the experiment: Test Example 4: herbicidal effect by soil treatment (Table 19, symbol L). To be noted: amount of applied herbicide 320 g/ha. Type of experiment: in vivo, windgrass (Apera spica-venti). The method, boiled down:
as §4
On to `CCCCCOc1ccc(-c2sc3ccccc3c2-c2c(O)c(C)nn(C)c2=O)cc1` [1-026], for which the “herbicidal effect rating, L: windgrass” value is on record as 0 (Herbicidal rate of 5% or less (almost no effect)).
